In ChEMBL document CHEMBL5375964, “Identification of Small Molecule Inhibitors and Ligand Directed Degraders of Calcium/Calmodulin Dependent Protein Kinase Kinase 1 and 2 (CaMKK1/2)” (J Med Chem, 2023):

Legend:
[1] = biological target: Calcium/calmodulin-dependent protein kinase kinase 2 (Homo sapiens, UniProt Q96RR4); assay: Induction of ePL tagged degradation of CaMKK2 (unknown origin) expressed in […] cells incubated for 24 hrs by luminescence based analysis; type: cell-based, HEK293T
[2] = Half life in C57BL/6 mouse at 10 mg/kg, po measured upto 72 hrs; type: ADME, organism-based; details: in vivo
[3] = AUC (0 to 24 hrs) in C57BL/6 mouse at 10 mg/kg, po measured upto 72 hrs; type: ADME, organism-based; set-up: dose 10 mg/kg, time < 72 hrs, route po; details: in vivo
[4] = Oral bioavailability in C57BL/6 mouse at 10 mg/kg measured upto 72 hrs; type: ADME, organism-based; details: in vivo
[5] = Cmax in C57BL/6 mouse at 10 mg/kg, po measured upto 72 hrs; type: ADME, organism-based; set-up: time < 72 hrs, dose 10 mg/kg, route po; details: in vivo
[6] = biological target: Calcium/calmodulin-dependent protein kinase kinase 1 (Homo sapiens, UniProt Q8N5S9); assay: Inhibition of CaMKK1 (unknown origin) incubated for 20 mins in presence of kinase tracer 236 by TR-FRET
[7] = Half life in C57BL/6 mouse at 10 mg/kg, sc measured upto 72 hrs; type: ADME, organism-based; details: in vivo
[8] = AUC (0 to 24 hrs) in C57BL/6 mouse at 10 mg/kg, sc measured upto 72 hrs; type: ADME, organism-based; set-up: time < 72 hrs, dose 10 mg/kg, route sc; details: in vivo
[9] = Cmax in C57BL/6 mouse at 10 mg/kg, sc measured upto 72 hrs; type: ADME, organism-based; set-up: dose 10 mg/kg, time < 72 hrs, route sc; details: in vivo
[10] = Bioavailability in C57BL/6 mouse at 10 mg/kg, sc measured upto 72 hrs; type: ADME, organism-based; details: in vivo
[11] = Tmax in C57BL/6 mouse at 10 mg/kg, po measured upto 72 hrs; type: ADME, organism-based; details: in vivo
[12] = system: A-427; assay: Antiproliferative activity against human A-427 cells assessed as reduction in cell growth incubated for 48 hrs by CellTiter assay; details: A-427, 48 h
[13] = Tmax in C57BL/6 mouse at 10 mg/kg, sc measured upto 72 hrs; type: ADME, organism-based; details: in vivo
[14] = biological target: Von Hippel-Lindau disease tumor suppressor/Elongin B/Elongin C (Homo sapiens, UniProt P40337); assay: Binding affinity to N-terminal 6 his tagged VHL (54 to 213 residues)/truncated ElonginC (17 to 122 residues) /full length ElonginB (unknown origin) expressed in Escherichia coli assessed as dissociation constant measured upto 300 secs by SPR analysis
[15] = Tmax in Cynomolgus monkey at 3 mg/kg, po or 1 mg/kg, iv measured upto 72 hrs; type: ADME, organism-based, Macaca fascicularis; details: in vivo
[16] = Half life in Beagle dog at 3 mg/kg, po or 1 mg/kg, iv measured upto 72 hrs; type: ADME, organism-based, Canis lupus familiaris; details: in vivo
[17] = Cmax in Sprague-Dawley rat at 3 mg/kg, po or 1 mg/kg, iv measured upto 24 hrs; type: ADME, organism-based; set-up: dose 3 mg/kg, time < 24 hrs, route po; details: in vivo
[18] = Tmax in Sprague-Dawley rat at 3 mg/kg, po or 1 mg/kg, iv measured upto 24 hrs; type: ADME, organism-based; details: in vivo
[19] = Half life in Cynomolgus monkey at 3 mg/kg, po or 1 mg/kg, iv measured upto 72 hrs; type: ADME, organism-based, Macaca fascicularis; details: in vivo
[20] = Volume of distribution in steady state in Beagle dog at 3 mg/kg, po or 1 mg/kg, iv measured upto 72 hrs; type: ADME, organism-based, Canis lupus familiaris; details: in vivo
[21] = Tmax in Beagle dog at 3 mg/kg, po or 1 mg/kg, iv measured upto 72 hrs; type: ADME, organism-based, Canis lupus familiaris; details: in vivo
[22] = Volume of distribution at steady state in Sprague-Dawley rat at 3 mg/kg, po or 1 mg/kg, iv measured upto 24 hrs; type: ADME, organism-based; details: in vivo
[23] = Cmax in Cynomolgus monkey at 3 mg/kg, po or 1 mg/kg, iv measured upto 72 hrs; type: ADME, organism-based, Macaca fascicularis; set-up: time < 72 hrs, dose 3 mg/kg, route po; details: in vivo
[24] = Plasma protein binding in Cynomolgus monkey; type: ADME, cell-free, Macaca fascicularis; details: read-out: PPB (converted)
[25] = biological target: Voltage-gated inwardly rectifying potassium channel KCNH2 (Homo sapiens, UniProt Q12809); assay: Inhibition of human ERG; type: toxicity
[26] = Bioavailability in Sprague-Dawley rat 3 mg/kg, po or 1 mg/kg, iv measured upto 24 hrs; type: ADME, organism-based; details: in vivo
[27] = AUC (0 to 24 hrs) in Sprague-Dawley rat at 3 mg/kg, po or 1 mg/kg, iv measured upto 24 hrs; type: ADME, organism-based; set-up: time < 24 hrs, dose 3 mg/kg, route po; details: in vivo
[28] = Cmax in Beagle dog at 3 mg/kg, po or 1 mg/kg, iv measured upto 72 hrs; type: ADME, organism-based, Canis lupus familiaris; set-up: time < 72 hrs, dose 3 mg/kg, route po; details: in vivo
[29] = AUC (0 to 72 hrs) in Beagle dog at 3 mg/kg, po or 1 mg/kg, iv measured upto 72 hrs; type: ADME, organism-based, Canis lupus familiaris; set-up: dose 3 mg/kg, time < 72 hrs, route po; details: in vivo
[30] = Bioavailability in Beagle dog at 3 mg/kg, po or 1 mg/kg, iv measured upto 72 hrs; type: ADME, organism-based, Canis lupus familiaris; details: in vivo
[31] = Plasma protein binding in Sprague-Dawley rat; type: ADME, cell-free; details: read-out: PPB (converted)
[32] = Bioavailability in Cynomolgus monkey at 3 mg/kg, po or 1 mg/kg, iv measured upto 72 hrs; type: ADME, organism-based, Macaca fascicularis; details: in vivo
[33] = Plasma protein binding in human; type: ADME, cell-free; set-up: dose or concentration left out as unconfirmed; details: route po, read-out: PPB (converted)
[34] = AUC (0 to 72 hrs) in Cynomolgus monkey at 3 mg/kg, po or 1 mg/kg, iv measured upto 72 hrs; type: ADME, organism-based, Macaca fascicularis; set-up: dose 3 mg/kg, time < 72 hrs, route po; details: in vivo
[35] = Plasma protein binding in Beagle dog; type: ADME, cell-free, Canis lupus familiaris; details: read-out: PPB (converted)
[36] = Half life in Sprague-Dawley rat at 3 mg/kg, po or 1 mg/kg, iv measured upto 24 hrs; type: ADME, organism-based; details: in vivo

Chain of Calcium/calmodulin-dependent protein kinase kinase 1 (Q8N5S9 whole entry): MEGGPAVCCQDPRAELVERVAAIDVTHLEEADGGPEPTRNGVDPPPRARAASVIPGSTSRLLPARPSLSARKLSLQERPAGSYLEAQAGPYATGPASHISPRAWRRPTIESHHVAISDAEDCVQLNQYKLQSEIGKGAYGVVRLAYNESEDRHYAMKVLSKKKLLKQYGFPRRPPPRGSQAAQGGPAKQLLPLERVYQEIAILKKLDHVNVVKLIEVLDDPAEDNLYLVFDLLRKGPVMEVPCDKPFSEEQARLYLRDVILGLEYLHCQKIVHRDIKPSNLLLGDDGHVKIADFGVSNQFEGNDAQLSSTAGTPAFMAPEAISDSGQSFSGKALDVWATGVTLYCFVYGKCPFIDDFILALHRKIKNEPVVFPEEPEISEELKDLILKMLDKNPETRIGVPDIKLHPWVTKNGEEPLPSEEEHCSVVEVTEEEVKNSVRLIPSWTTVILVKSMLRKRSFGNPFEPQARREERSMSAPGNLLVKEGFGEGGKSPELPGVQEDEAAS
Chain of Calcium/calmodulin-dependent protein kinase kinase 2 (Q96RR4 whole entry): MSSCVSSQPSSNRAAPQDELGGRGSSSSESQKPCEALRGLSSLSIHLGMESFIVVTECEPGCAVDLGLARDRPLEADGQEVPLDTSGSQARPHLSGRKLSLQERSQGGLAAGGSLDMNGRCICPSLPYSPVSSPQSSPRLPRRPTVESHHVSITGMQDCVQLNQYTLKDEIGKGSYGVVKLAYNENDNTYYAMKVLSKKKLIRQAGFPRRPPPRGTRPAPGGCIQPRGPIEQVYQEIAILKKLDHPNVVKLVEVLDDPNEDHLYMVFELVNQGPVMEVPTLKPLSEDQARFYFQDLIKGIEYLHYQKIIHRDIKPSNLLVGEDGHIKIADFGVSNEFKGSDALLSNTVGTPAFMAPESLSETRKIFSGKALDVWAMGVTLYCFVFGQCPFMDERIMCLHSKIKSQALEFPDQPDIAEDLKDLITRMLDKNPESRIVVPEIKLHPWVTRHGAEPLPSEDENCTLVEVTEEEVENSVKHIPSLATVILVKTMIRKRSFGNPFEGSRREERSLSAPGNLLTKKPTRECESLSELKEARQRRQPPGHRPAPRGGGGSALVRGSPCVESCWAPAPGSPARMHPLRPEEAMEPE
Chain of Voltage-gated inwardly rectifying potassium channel KCNH2 (Q12809 whole entry): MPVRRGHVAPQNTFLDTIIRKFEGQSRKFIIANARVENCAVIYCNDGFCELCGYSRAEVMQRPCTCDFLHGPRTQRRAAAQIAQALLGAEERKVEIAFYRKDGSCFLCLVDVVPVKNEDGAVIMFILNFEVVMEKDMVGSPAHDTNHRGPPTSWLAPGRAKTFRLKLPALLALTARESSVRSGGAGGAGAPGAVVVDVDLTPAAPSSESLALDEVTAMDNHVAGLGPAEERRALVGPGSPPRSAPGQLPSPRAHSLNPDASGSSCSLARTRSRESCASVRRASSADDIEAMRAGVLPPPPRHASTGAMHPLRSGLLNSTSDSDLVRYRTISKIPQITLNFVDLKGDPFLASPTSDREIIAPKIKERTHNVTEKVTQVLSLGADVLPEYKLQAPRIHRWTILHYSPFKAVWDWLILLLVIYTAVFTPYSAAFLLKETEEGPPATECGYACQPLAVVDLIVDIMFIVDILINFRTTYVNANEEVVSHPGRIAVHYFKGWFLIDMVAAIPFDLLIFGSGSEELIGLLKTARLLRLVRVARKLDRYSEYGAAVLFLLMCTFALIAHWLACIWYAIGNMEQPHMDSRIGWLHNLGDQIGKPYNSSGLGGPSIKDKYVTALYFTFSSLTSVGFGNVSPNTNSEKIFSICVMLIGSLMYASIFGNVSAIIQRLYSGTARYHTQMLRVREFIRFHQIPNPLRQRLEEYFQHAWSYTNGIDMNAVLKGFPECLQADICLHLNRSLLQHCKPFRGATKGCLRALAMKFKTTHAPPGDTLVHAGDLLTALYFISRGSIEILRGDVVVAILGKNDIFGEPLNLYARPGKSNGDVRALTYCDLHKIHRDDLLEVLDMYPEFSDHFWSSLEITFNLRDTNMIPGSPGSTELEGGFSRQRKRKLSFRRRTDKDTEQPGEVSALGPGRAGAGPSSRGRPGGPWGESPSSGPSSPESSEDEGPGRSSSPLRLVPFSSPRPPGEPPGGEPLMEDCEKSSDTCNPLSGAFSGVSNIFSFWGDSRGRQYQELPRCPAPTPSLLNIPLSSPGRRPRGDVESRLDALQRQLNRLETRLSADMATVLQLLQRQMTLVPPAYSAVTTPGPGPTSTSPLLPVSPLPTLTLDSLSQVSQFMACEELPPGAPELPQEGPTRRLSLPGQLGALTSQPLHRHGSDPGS
Chain of Von Hippel-Lindau disease tumor suppressor/Elongin B/Elongin C (P40337 whole entry, looked up, the tested form may be a part): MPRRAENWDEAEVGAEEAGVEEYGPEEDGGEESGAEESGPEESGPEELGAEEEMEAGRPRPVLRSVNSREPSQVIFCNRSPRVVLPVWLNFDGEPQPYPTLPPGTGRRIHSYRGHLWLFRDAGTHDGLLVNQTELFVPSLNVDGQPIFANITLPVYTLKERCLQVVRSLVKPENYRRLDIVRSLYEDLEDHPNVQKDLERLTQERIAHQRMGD

SMILES: Cc1ncsc1-c1ccc(CNC(=O)[C@@H]2C[C@@H](O)CN2C(=O)[C@@H](NC(=O)CCCCCCOc2ccc3c(-c4ccc(C(=O)O)c(C5CCCC5)c4)ncnc3c2)C(C)(C)C)cc1
- EC50 [1]: 2 µM

SMILES: Cc1ncsc1-c1ccc(CNC(=O)[C@@H]2C[C@@H](O)CN2C(=O)[C@@H](NC(=O)CCCCCCCCCOc2ccc3c(-c4ccc(C(=O)O)c(C5CCCC5)c4)ncnc3c2)C(C)(C)C)cc1
- half-life [2]: 8.1 h
- AUC(0-t) at 72 h [3]: 3.96 µM·h
- bioavailability [4]: 18%
- Cmax [5]: 3.21 µM
- IC50 [6]: 0.094 µM
- half-life [7]: 24 h
- AUC(0-t) at 72 h [8]: 39.9 µM·h
- Cmax [9]: 7.18 µM
- bioavailability [10]: 100%
- Tmax [11]: 0.5 h
- EC50 [12]: > 8 µM
- Tmax [13]: 0.5 h
- Kd [14]: 0.13 µM

SMILES: Cc1ncsc1-c1ccc(CNC(=O)[C@@H]2C[C@@H](O)CN2C(=O)[C@@H](NC(=O)CCCCCCCCCCCOc2ccc3c(-c4ccc(C(=O)O)c(C5CCCC5)c4)ncnc3c2)C(C)(C)C)cc1
- EC50 [1]: 4.5 µM

SMILES: CCOc1cc2ncnc(-c3ccc(C(=O)O)c(C4CCCC4)c3)c2cc1F
- IC50 [6]: 0.054 µM

SMILES: Cc1ncsc1-c1ccc(CNC(=O)[C@@H]2C[C@@H](O)CN2C(=O)[C@@H](NC(=O)CCCCCCCCOc2ccc3c(-c4ccc(C(=O)O)c(C5CCCC5)c4)ncnc3c2)C(C)(C)C)cc1
- EC50 [1]: 0.62 µM

SMILES: Cc1ncsc1-c1ccc(CNC(=O)[C@@H]2C[C@@H](O)CN2C(=O)[C@@H](NC(=O)CCCCCCCOc2ccc3c(-c4ccc(C(=O)O)c(C5CCCC5)c4)ncnc3c2)C(C)(C)C)cc1
- EC50 [1]: 0.51 µM

SMILES: CCOc1cc2ncnc(-c3ccc(C(=O)O)c(C(C)C)c3)c2cc1F
- IC50 [6]: 0.011 µM

SMILES: Cc1ncsc1-c1ccc(CNC(=O)[C@@H]2C[C@@H](O)CN2C(=O)[C@@H](NC(=O)CCCCCCCCCCOc2ccc3c(-c4ccc(C(=O)O)c(C5CCCC5)c4)ncnc3c2)C(C)(C)C)cc1
- EC50 [1]: 0.53 µM

SMILES: CCOc1cc(F)c2c(-c3ccc(C(=O)O)c(C(C)C)c3)ncnc2c1
- Tmax [15]: 1.7 h
- half-life [16]: 11 h
- Cmax [17]: 19 µM
- Tmax [18]: 3 h
- half-life [19]: 20 h
- Vdss [20]: 0.44 L/kg
- Tmax [21]: 0.5 h
- Vdss [22]: 0.57 L/kg
- IC50 [6]: 0.012 µM
- Cmax [23]: 28 µM
- fraction unbound [24]: 0.007
- IC50 [25]: > 30 µM
- bioavailability [26]: 80%
- AUC(0-t) at 24 h [27]: 58 µM·h
- Cmax [28]: 30 µM
- AUC(0-t) at 72 h [29]: 79 µM·h
- bioavailability [30]: 68%
- fraction unbound [31]: 0.012
- bioavailability [32]: 95%
- fraction unbound at 72 h [33]: 0.003
- AUC(0-t) at 72 h [34]: 282 µM·h
- fraction unbound [35]: 0.02
- half-life [36]: 4.9 h

SMILES: Cc1ncsc1-c1ccc(CNC(=O)[C@@H]2C[C@@H](O)CN2C(=O)[C@@H](N(C)C(=O)CCCCCCCCCOc2ccc3c(-c4ccc(C(=O)O)c(C5CCCC5)c4)ncnc3c2)C(C)(C)C)cc1
- EC50 [1]: > 10 µM

SMILES: Cc1ncsc1-c1ccc(CNC(=O)[C@@H]2C[C@@H](O)CN2C(=O)[C@@H](NC(=O)CCCCCOc2ccc3c(-c4ccc(C(=O)O)c(C5CCCC5)c4)ncnc3c2)C(C)(C)C)cc1
- EC50 [1]: > 10 µM

SMILES: CCOc1ccc2c(-c3ccc(C(=O)O)c(C(C)C)c3)ncnc2c1
- IC50 [6]: 0.047 µM
